Experimental data from patent US3963777A, “1-Polyhydroxy alkyl-1,4-benzodiazepin-2-ones” (Hoffmann-La Roche Inc., priority 1975, dated 1976).

Columns and labels:
[1] = LD50 (p.o.), acute toxicity; conditions: in vivo, po
[2] = standard pentamethylenetetrazole (pentetrazole) test for anticonvulsant activity, method of Orloff; format: in vivo; conditions: p.o.
Source text: The compounds of formula I above and their pharmaceutically acceptable acid addition salts are useful as sedative muscle relaxant and anti-convulsant agents.

mice = test: standard rotating rod test (sedative and muscle-relaxant activity); format: in vivo; conditions: p.o.
Method: In this test, the ability of mice to achieve a coordinated motor performance is investigated. After peroral administration of the test substance, the mice are placed upon a horizontal slowly rotating rod and the time they remain on the rod is recorded. The ED50 is that dose which reduces the holding on period of the mice by 50% as compared to the holding on period prior to the administration of the test substance.

O=C1CN=C(c2ccccc2F)c2cc(Cl)ccc2N1CC(O)CO (stereo not drawn) [Compound A, 7-chloro-1-(2,3-dihydroxypropyl)-5-(2-fluorophenyl)-1,3-dihydro-2H-1,4-benzodiazepin-2-one]
LD50 [1]: 1250 to 2500 mg/kg
APR 2.0 (dosage of an anticonvulsant which causes a two-fold pentetrazole consumption in contrast to an untreated control group) [2]: 5.6 mg/kg
ED50 (dose which reduces the holding on period of the mice by 50% as compared to the holding on period prior to administration) (mice): 5.1 mg/kg
